Experimental data from patent publication US11634466B2, “Musclin peptides and methods of use thereof” (UNIVERSITY OF IOWA RESEARCH FOUNDATION, priority 2016, dated 2023).

Legend:
[1] = Plasma musclin level by custom ELISA after osmotic pump infusion of musclin; format: in vivo; conditions: WT mice, musclin 1 ng/g/h i.p. by osmotic pump for 7 d
Protocol: Whole body composition was obtained by time-domain nuclear magnetic resonance under isoflurane anesthesia (Bruker Minispec; Billerica, Mass.). Osmotic pumps: Osmotic pumps (model 1004, 100 μl volume, 0.11 μl/hr release rate, 28 days duration, Alzet Durect, Cupertino, Calif.), loaded with saline vs. 50 μg of mouse musclin peptide (SFSGFGSPLDRLSAG SVEHRGKQRKAVDHSKKR (SEQ ID NO: 4), corresponding to amino acids 80-112, Gen Bank ID: AAS87598.1, synthesized by Biosynthesis, Lewisville, Tex.) were surgically implanted within the peritoneal cavity of mice under sterile conditions and general anesthesia. Mice recovered for 7 days before exercise testing was performed.
Terminal blood collection was performed by direct cardiac puncture.
96-well ELISA Maxisorp plates (Nunc) were coated with custom rabbit anti-musclin IgG (Anaspec) at 1 μg/well in BupH carbonate-bicarbonate buffer, pH 9.4 (Thermo Scientific) at 4° C. overnight. On the next day plates were washed with TBS/0.05% Tween 20 and blocked with 5% BSA/TBS for 1 hr at room temperature. Synthetic musclin peptide was used as a standard (NH2-sfsgfgspldrlsagsvehrgkqrkavdhskkr-COOH (SEQ ID NO: 28), corresponding to amino acids 80-112, Gen Bank ID: AAS87598.1, synthesized by Biosynthesis, Lewisville, Tex.). […] Fluorescence was detected at 325/420 nm.

[2] = test system: cGMP production in murine primary myoblasts; assay: cGMP production in skeletal myoblast culture exposed to ANP and musclin; format: cell-based; conditions: n=3
Protocol: Cyclic GMP levels were measured using cyclicGMP EIA kit (Cayman Chemical Company, Ann Arbor, Mich.). Mice were exercised for 5 days, 12 m/min, 45 min before tissue collection. At the day of the experiment mice were exercised 12 m/min, 20 min, sedated with isoflurane and gastrocnemius muscle tissue was collected. Cyclic nucleotides were extracted using 5% trichloracetic acid. Samples were acetylated and used for cGMP level measurements according to the manufacturer's protocol.
Mouse primary myoblasts were isolated from gastrocnemius muscle of 4-6 weeks old mice. Fresh muscle tissue was digested with 2 mg/ml collagenase II in DMEM-F12 for 1.5 h at 37° C.; then 30 min at 37° C. with 1 mg/ml collagenase II and 0.5 mg/ml dispase in DMEM-F12. Tissue was ground and passed through a 100 μm then 70 μm cell strainer and spun at 1000 rpm for 10 min. Myoblasts were resuspended in DMEM-F12 supplemented with 20% FBS, 40 ng/ml bFGF, non-essential amino acids, 1 mM β-mercaptoethanol. Cells were plated on matrigel coated dishes. Cells were maintained in DMEM-F12 supplemented with 20% FBS, 10 ng/ml bFGF, non-essential amino acids, 1 mM β-mercaptoethanol until 80% confluent. Then they were differentiated in DMEM-F12 supplemented with 2% FBS and insulin-transferrin-selenium for 10 days. Human skeletal myoblast primary culture (lot #SLSK002, Zenbio, Research Triangle Park, NC) was maintained according to the supplier's manual.

NPRA = biological target: T1, NPRA (Homo sapiens, UniProt P16066); conditions: background statement; without activating the linked guanylyl cyclase; cited from earlier work
T1 sequence (P16066 33-1061): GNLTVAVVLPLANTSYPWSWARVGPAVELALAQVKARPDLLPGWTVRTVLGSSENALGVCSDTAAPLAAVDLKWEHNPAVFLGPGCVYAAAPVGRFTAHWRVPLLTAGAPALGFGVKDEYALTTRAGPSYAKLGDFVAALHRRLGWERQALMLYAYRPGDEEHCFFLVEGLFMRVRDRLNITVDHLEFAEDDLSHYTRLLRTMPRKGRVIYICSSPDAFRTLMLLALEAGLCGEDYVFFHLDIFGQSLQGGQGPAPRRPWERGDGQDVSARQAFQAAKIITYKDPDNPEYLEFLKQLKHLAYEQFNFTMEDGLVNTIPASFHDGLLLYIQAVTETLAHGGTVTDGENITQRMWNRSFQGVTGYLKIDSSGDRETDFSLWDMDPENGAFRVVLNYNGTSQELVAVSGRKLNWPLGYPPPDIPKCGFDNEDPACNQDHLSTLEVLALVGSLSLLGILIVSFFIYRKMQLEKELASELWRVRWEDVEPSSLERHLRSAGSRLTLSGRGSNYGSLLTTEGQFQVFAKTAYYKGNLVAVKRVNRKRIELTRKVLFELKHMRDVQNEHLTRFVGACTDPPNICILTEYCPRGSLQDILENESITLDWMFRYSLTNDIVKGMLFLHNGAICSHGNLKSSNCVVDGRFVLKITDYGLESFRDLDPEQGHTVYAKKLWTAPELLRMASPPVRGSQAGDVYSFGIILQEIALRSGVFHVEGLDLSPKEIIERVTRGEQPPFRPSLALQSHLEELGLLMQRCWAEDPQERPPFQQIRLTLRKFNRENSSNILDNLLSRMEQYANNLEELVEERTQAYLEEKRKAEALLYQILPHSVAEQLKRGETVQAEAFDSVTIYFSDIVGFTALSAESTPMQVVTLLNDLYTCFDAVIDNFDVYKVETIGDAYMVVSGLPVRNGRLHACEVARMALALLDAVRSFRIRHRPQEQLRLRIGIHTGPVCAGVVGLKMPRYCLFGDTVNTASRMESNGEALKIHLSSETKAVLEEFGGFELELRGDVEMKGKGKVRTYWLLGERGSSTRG

H-SFSGFGSPLDRLSAGSVEHRGKQRKAVDHSKKR-OH [musclin]
plasma level induced by musclin infusion [1]: comparable with that observed after exercise training | cGMP production ([2]; 1 μM musclin without ANP): 0.104±0.006 fmol/μg protein | cGMP production ([2]; 5 μM musclin without ANP): 0.117±0.003 fmol/μg protein | binding to NPRA (NPRA): weak binding
